Results taken from US8937089B2, “Synergistic mixtures of anthranilamide invertebrate pest control agents” (priority 2004, dated 2015).

Key:
Test in all cases: whole plant or invertebrate
Assay type in all cases: in vivo
[1] = test system: diamondback moth (Plutella xylostella)
Procedure: The test compounds were dissolved in water. […] Serial dilutions were made to obtain the appropriate concentrations. To obtain the desired mixture concentrations of each compound, twice the desired concentration of each of the two mixture partner compounds were mixed together in equal volumes.
The diluted solutions of the test compounds were sprayed to run-off on three-week-old tomato plants. The plants were placed on a rotating turntable sprayer (10 rpm). Test solutions were applied using a flat fan air-assisted nozzle (Spraying Systems 122440) at 10 psi (69 kPa). […] The leaves were cut into pieces, which were placed singly into 5.5 cm-by-3.5 cm cells of a sixteen-cell plastic tray. Each cell contained a 2.5-cm square of moistened chromatography paper to prevent desiccation. One insect was placed in each cell. There two trays per treatment. Trays were held in the growth chamber at 25° C., 16-hour light:8-hour dark, 60% relative humidity for 4 days.
For evaluating control of diamondback moth (Plutella xylostella), cabbage (var. Stonehead) plants were grown in Metromix potting soil in 10-cm pots in aluminum trays to test size (28 days, 3-4 full leaves) the plants were sprayed to the point of runoff using the turntable sprayer as described in Test I. Test compounds were formulated and sprayed on test plants as described for Test I. After drying for 2 hours, the treated leaves were excised and infested with one cabbage looper per cell and covered. The test units were placed on trays and put in a growth chamber at 25° C. and 60% relative humidity for 4 days.

[2] = test system: cotton melon aphid (Aphis gossypii Glover)
In short: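 Cotton plants (6–7 days old) pre-infested with 30–40 aphids by cut-leaf method, sprayed with compound (ppm) in 10% acetone/90% water with 300 ppm X-77 surfactant, three replicates. Held 6 days at 19–21 °C, 50–70% RH; contact and/or systemic control assessed.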

[3] = test system: potato leafhopper (Empoasca fabae Harris); settings: alone
In short: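 Bean plants (5–6 days old, one primary leaf excised) were sprayed with 1 mL of compound in 10% acetone/water with 300 ppm X-77 surfactant, 3 replicates. After drying for 1 h, each unit was infested with 5 adult leafhoppers. Units were held 6 days at 19–21 °C and 50–70% RH.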

[4] = test system: silverleaf whitefly (Bemisia argentifolii Bellows and Perring); settings: Table 2B
In short: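 Whitefly-egg-infested 12–14-day-old cotton plants sprayed with compound in 10% acetone/90% water plus 300 ppm non-ionic surfactant, in triplicate. Plants then held 13 days at 28 °C and 50–70% relative humidity before mortality assessment.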

[5] = test system: western flower thrip (Frankliniella occidentalis Pergande); settings: single compound, spray, 7 days
In short: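 Compounds in 10% acetone/90% water with 300 ppm non-ionic surfactant were sprayed onto 5- to 7-day-old bean plants, 3 replicates. After 1 h drying, 22–27 adult thrips were added per unit. Units were held 7 days at 25° C, 45–55% RH, assessing contact and/or systemic control.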

[6] = test system: green peach aphid (Myzus persicae Sulzer); settings: Green Peach Aphid
In short: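 Compounds formulated in 10% acetone/water with 300 ppm X-77 surfactant were atomized onto aphid-infested radish seedlings, with three replicates per treatment. Infestation was 30–40 aphids transferred on excised leaf pieces, covering contact and systemic exposure. Test units stayed 6 days in a growth chamber at 19–21 °C and 50–70% relative humidity.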

[7] = test system: corn planthopper (Peregrines maidis); settings: Corn Plant Hopper
In short: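 Compounds in 10% acetone/90% water with 300 ppm X-77 surfactant sprayed (3 replications) onto 3- to 4-day-old corn plants, dried 1 h, then infested with 10–20 corn planthopper nymphs aged 18–20 days. Held 6 days at 19-21° C. and 50-70% relative humidity; contact and/or systemic control assessed.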

Spinosad
% mortality (obs) ([1]; rate 10 ppm): 100% | % mortality (obs) ([1]; rate 100 ppm): 90% | % mortality (obs) ([1]; rate 1000 ppm): 100% | % mortality (obs) ([2]; rate 10 ppm): 16% | % mortality (obs) ([2]; rate 100 ppm): 35% | % mortality (obs) ([2]; rate 1000 ppm): 30% | % mortality (obs) ([3]; rate 30 ppm): 73% | % mortality (obs) ([3]; rate 100 ppm): 80% | % mortality (obs) ([3]; rate 110 ppm): 47% | % mortality (obs) ([4]; rate 100 ppm): 66% | % mortality (obs) ([4]; rate 150 ppm): 69% | % mortality (obs) ([4]; rate 300 ppm): 95% | % mortality (obs) ([5]; rate 0.1 ppm): 20% | % mortality (obs) ([5]; rate 0.5 ppm): 60% | % mortality (obs) ([5]; rate 3 ppm): 90% | % mortality (obs) ([6]; rate 10 ppm): 25% | % mortality (obs) ([6]; rate 100 ppm): 46% | % mortality (obs) ([6]; rate 1000 ppm): 59% | % mortality (obs) ([7]; rate 5 ppm): 100% | % mortality (obs) ([7]; rate 10 ppm): 100% | % mortality (obs) ([7]; rate 20 ppm): 100%

Pyridaben
% mortality (obs) ([1]; rate 100 ppm): 100% | % mortality (obs) ([1]; rate 150 ppm): 80% | % mortality (obs) ([1]; rate 200 ppm): 100% | % mortality (obs) ([2]; rate 1 ppm): 11% | % mortality (obs) ([2]; rate 2 ppm): 15% | % mortality (obs) ([2]; rate 10 ppm): 71% | % mortality (obs) ([3]; rate 1 ppm): 0% | % mortality (obs) ([3]; rate 2.5 ppm): 13% | % mortality (obs) ([3]; rate 10 ppm): 100% | % mortality (obs) ([4]; rate 20 ppm): 21% | % mortality (obs) ([4]; rate 30 ppm): 55% | % mortality (obs) ([4]; rate 50 ppm): 73% | % mortality (obs) ([5]; rate 10 ppm): 30% | % mortality (obs) ([5]; rate 80 ppm): 50% | % mortality (obs) ([5]; rate 200 ppm): 60% | % mortality (obs) ([6]; rate 1 ppm): 100% | % mortality (obs) ([6]; rate 10 ppm): 14% | % mortality (obs) ([6]; rate 60 ppm): 60% | % mortality (obs) ([7]; rate 2 ppm): 10% | % mortality (obs) ([7]; rate 2.5 ppm): 2% | % mortality (obs) ([7]; rate 3 ppm): 2%

Dieldrin
% mortality (obs) ([1]; rate 2 ppm): 90% | % mortality (obs) ([1]; rate 2.5 ppm): 100% | % mortality (obs) ([1]; rate 3 ppm): 100% | % mortality (obs) ([2]; rate 1 ppm): 13% | % mortality (obs) ([2]; rate 5 ppm): 26% | % mortality (obs) ([2]; rate 50 ppm): 66% | % mortality (obs) ([3]; rate 2.5 ppm): 27% | % mortality (obs) ([3]; rate 5 ppm): 100% | % mortality (obs) ([3]; rate 10 ppm): 100% | % mortality (obs) ([4]; rate 10 ppm): 0% | % mortality (obs) ([4]; rate 100 ppm): 0% | % mortality (obs) ([4]; rate 1000 ppm): 0% | % mortality (obs) ([5]; rate 10 ppm): 10% | % mortality (obs) ([5]; rate 100 ppm): 20% | % mortality (obs) ([5]; rate 1000 ppm): 30% | % mortality (obs) ([6]; rate 10 ppm): 59% | % mortality (obs) ([6]; rate 100 ppm): 43% | % mortality (obs) ([6]; rate 1000 ppm): 41% | % mortality (obs) ([7]; rate 0.1 ppm): 37% | % mortality (obs) ([7]; rate 0.2 ppm): 57% | % mortality (obs) ([7]; rate 0.3 ppm): 71%

Thiamethoxam
% mortality (obs) ([1]; rate 30 ppm): 90% | % mortality (obs) ([1]; rate 40 ppm): 100% | % mortality (obs) ([1]; rate 50 ppm): 100% | % mortality (obs) ([2]; rate 0.2 ppm): 24% | % mortality (obs) ([2]; rate 0.4 ppm): 48% | % mortality (obs) ([2]; rate 0.6 ppm): 66% | % mortality (obs) ([3]; rate 0.1 ppm): 80% | % mortality (obs) ([3]; rate 0.2 ppm): 100% | % mortality (obs) ([3]; rate 0.4 ppm): 100% | % mortality (obs) ([4]; rate 5 ppm): 15% | % mortality (obs) ([4]; rate 15 ppm): 78% | % mortality (obs) ([4]; rate 30 ppm): 92% | % mortality (obs) ([5]; rate 5 ppm): 20% | % mortality (obs) ([5]; rate 50 ppm): 80% | % mortality (obs) ([5]; rate 250 ppm): 90% | % mortality (obs) ([6]; rate 0.2 ppm): 35% | % mortality (obs) ([6]; rate 0.4 ppm): 94% | % mortality (obs) ([6]; rate 0.6 ppm): 100% | % mortality (obs) ([7]; rate 0.2 ppm): 100% | % mortality (obs) ([7]; rate 0.4 ppm): 100% | % mortality (obs) ([7]; rate 0.6 ppm): 100%

Cc1ccc(/N=C/N(C)/C=N/c2ccc(C)cc2C)c(C)c1 [Amitraz]
mortality at 10 ppm ([1]; Plutella xylostella, in Brassica oleracea, rate 10 ppm, read-out: % mortality (obs)): 70% | mortality at 100 ppm ([1]; Plutella xylostella, in Brassica oleracea, rate 100 ppm, read-out: % mortality (obs)): 20% | mortality at 1000 ppm ([1]; Plutella xylostella, in Brassica oleracea, rate 1000 ppm, read-out: % mortality (obs)): 50% | mortality at 10 ppm ([2]; Aphis gossypii, rate 10 ppm, read-out: % mortality (obs)): 20% | mortality at 100 ppm ([2]; Aphis gossypii, rate 100 ppm, read-out: % mortality (obs)): 35% | mortality at 1000 ppm ([2]; Aphis gossypii, rate 1000 ppm, read-out: % mortality (obs)): 29% | mortality at 10 ppm ([3]; Empoasca fabae, rate 10 ppm, read-out: % mortality (obs)): 0% | mortality at 100 ppm ([3]; Empoasca fabae, rate 100 ppm, read-out: % mortality (obs)): 7% | mortality at 1000 ppm ([3]; Empoasca fabae, rate 1000 ppm, read-out: % mortality (obs)): 13% | mortality at 500 ppm ([4]; Bemisia argentifolii, in Gossypium hirsutum, rate 500 ppm, read-out: % mortality (obs)): 5% | mortality at 1000 ppm ([4]; Bemisia argentifolii, in Gossypium hirsutum, rate 1000 ppm, read-out: % mortality (obs)): 0% | mortality at 2000 ppm ([4]; Bemisia argentifolii, in Gossypium hirsutum, rate 2000 ppm, read-out: % mortality (obs)): 0% | mortality at 10 ppm ([5]; Frankliniella occidentalis, 168 h, rate 10 ppm, read-out: % mortality (obs)): 40% | mortality at 100 ppm ([5]; Frankliniella occidentalis, 168 h, rate 100 ppm, read-out: % mortality (obs)): 30% | mortality at 1000 ppm ([5]; Frankliniella occidentalis, 168 h, rate 1000 ppm, read-out: % mortality (obs)): 20% | mortality at 10 ppm ([6]; Myzus persicae, in Raphanus sativus, rate 10 ppm, read-out: % mortality (obs)): 16% | mortality at 100 ppm ([6]; Myzus persicae, in Raphanus sativus, rate 100 ppm, read-out: % mortality (obs)): 12% | mortality at 1000 ppm ([6]; Myzus persicae, in Raphanus sativus, rate 1000 ppm, read-out: % mortality (obs)): 34% | mortality at 5 ppm ([7]; rate 5 ppm, read-out: % mortality (obs)): 6% | mortality at 10 ppm ([7]; rate 10 ppm, read-out: % mortality (obs)): 3% | mortality at 50 ppm ([7]; rate 50 ppm, read-out: % mortality (obs)): 5%
